Measured values published in paper doi:10.1101/2024.02.16.580709v1, “Developing Hybrid Systems to Address O2 Uncoupling in Multi-Component Rieske Oxygenases” (biorxiv, 2024).

How the values were obtained:
Format in all cases: biochemical
PDR = target: T1, PDR (Burkholderia cepacia, UniProt P33164); assay: ABTS-HRP assay of H2O2 formed; conditions: 24 h; GDH-based NADH regeneration; O2 uncoupling, no ferredoxin
T1 construct: gene ophA1; codon-optimised gene in pET-28a(+), N-terminal 6xHis tag, E. coli JM109(DE3), Ni-sepharose purified; flavin and [2Fe-2S] domains
T1 sequence (P33164 2-322): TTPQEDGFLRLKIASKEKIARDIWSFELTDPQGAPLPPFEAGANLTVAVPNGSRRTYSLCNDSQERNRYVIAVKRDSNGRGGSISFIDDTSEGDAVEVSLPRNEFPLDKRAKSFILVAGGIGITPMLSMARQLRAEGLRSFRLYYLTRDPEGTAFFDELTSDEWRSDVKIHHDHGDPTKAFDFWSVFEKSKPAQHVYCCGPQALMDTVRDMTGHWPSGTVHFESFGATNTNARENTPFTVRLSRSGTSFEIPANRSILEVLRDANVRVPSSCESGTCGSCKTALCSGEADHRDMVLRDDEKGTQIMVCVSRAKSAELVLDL

VanB = target: T2, VanB (Pseudomonas aeruginosa, UniProt Q9HUQ8); assay: ABTS-HRP assay of H2O2 formed; conditions: 24 h; GDH-based NADH regeneration; O2 uncoupling, no ferredoxin
T2 construct: codon-optimised gene in pET-28a(+), N-terminal 6xHis tag, E. coli JM109(DE3), Ni-sepharose purified; flavin and [2Fe-2S] domains
T2 sequence (Q9HUQ8 1-317): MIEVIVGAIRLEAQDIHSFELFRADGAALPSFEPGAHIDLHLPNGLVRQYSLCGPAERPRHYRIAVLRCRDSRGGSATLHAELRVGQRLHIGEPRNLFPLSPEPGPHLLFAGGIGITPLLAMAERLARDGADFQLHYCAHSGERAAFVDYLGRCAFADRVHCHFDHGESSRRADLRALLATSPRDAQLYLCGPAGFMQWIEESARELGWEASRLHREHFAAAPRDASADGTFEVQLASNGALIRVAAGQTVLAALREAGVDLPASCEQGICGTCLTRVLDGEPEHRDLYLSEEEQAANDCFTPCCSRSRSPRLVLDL

[1] = target: T3, CDO (CDO-WT; CDO-Oxy with CDO-Fd and CDO-Red) (Pseudomonas fluorescens, UniProt Q51743); assay: GC-FID product quantification; conditions: 30 °C, 24 h, pH 7.2; NAD+ with GDH/glucose NADH regeneration, catalase, 1 mM DTT; O2
T3 construct: gene cumA1; codon-optimised genes in pET-28a(+), N-terminal 6xHis tag, E. coli JM109(DE3), Ni-sepharose purified; components mixed in vitro; with Cumene dioxygenase terminal oxygenase small (beta) subunit; Cumene dioxygenase ferredoxin; Cumene dioxygenase ferredoxin reductase
T3 sequence (Q51743 1-459): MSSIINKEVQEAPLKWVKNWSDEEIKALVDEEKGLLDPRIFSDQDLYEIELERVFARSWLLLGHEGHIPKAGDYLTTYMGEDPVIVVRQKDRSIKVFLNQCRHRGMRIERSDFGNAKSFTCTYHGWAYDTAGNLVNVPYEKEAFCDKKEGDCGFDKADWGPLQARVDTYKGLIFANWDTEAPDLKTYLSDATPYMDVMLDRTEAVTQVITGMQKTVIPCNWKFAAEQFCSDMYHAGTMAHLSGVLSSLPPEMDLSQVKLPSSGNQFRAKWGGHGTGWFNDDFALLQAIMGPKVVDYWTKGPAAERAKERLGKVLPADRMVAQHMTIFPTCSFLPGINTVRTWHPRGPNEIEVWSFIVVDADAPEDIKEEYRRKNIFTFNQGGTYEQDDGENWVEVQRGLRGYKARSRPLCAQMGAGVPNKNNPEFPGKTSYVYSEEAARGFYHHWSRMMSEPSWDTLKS
T3 sequence (Q51744 1-186 partner): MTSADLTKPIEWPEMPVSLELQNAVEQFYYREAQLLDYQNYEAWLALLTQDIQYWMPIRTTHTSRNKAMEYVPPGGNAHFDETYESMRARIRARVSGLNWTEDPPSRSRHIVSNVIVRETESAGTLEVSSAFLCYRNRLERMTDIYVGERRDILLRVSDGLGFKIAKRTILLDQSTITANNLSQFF

SMILES: NC(=O)C1=CN([C@@H]2O[C@H](COP(=O)(O)OP(=O)(O)OC[C@H]3O[C@@H](n4cnc5c(N)ncnc54)[C@H](O)[C@@H]3O)[C@@H](O)[C@H]2O)C=CC1 [NADH]
- ABTS-HRP assay of H2O2 formed (PDR): the H2O2 formation by PDR and VanB was evaluated analogously
- ABTS-HRP assay of H2O2 formed (VanB): the H2O2 formation by PDR and VanB was evaluated analogously

SMILES: C1=Cc2ccccc2C1 [compound 1, indene]
- GC-FID product quantification [1]: product formation in in vitro reactions with complete CDO-WT
